Several values for one entry are separate records, joined by “and”; a condition that tells them apart may be missing. Equal values may be shown once.
Experiments:
porcine pepsin = target: T1, porcine pepsin (Sus scrofa, UniProt P00791); test: Peptide stability in simulated gastric fluid (SGF); assay type: in vitro ADME; conditions: pig, simulated gi fluid; 8 h, 37 °C, pH 1.2; read-out: Proteolytic stability: SGF (8 h) % remaining
T1 construct: 0.32 g of porcine pepsin (Sigma-Aldrich, P7125) was dissolved under gentle agitation; purchased Sigma-Aldrich P7125
Outline: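 Peptide from a 1 mM DMSO stock was added to fluid pre-warmed at 37 °C. SGF was pH 1.2 NaCl with porcine pepsin (0.32 g per 100 ml), and SIF was pH 6.8 potassium phosphate with porcine pancreatin (1 g per 100 ml). Supernatant peptide was quantified by LC–MS, with residual expressed as T1/T0.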

[1] = Passive artificial membrane permeability (PAMPA);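 for Permeability% Average: top well sample relative to theoretical equilibrium sample by TIC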
rat α-thrombin = target: T2, rat α-thrombin (Rattus norvegicus, UniProt P18292); test: Protease inhibition, Ki for rat α-thrombin (fluorogenic substrate Z-Gly-Gly-Arg-AMC); assay type: biochemical; conditions: replicates R1-R3
T2 construct: rat α-thrombin (Molecular Innovations) were used at final concentrations of 2 nM and 3 nM; purchased Molecular Innovations
Outline: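 Ki derived through Cheng–Prusoff from IC50s (four-parameter logistic fit) against activity of peptide-free controls. Product fluorescence was read every 3 min over 30 min at 25 °C, substrate Z-Gly-Gly-Arg-AMC at 50 μM. Enzyme was 2 nM human or 3 nM rat α-thrombin, pH 7.4 buffer.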

T1 sequence (P00791 60-385): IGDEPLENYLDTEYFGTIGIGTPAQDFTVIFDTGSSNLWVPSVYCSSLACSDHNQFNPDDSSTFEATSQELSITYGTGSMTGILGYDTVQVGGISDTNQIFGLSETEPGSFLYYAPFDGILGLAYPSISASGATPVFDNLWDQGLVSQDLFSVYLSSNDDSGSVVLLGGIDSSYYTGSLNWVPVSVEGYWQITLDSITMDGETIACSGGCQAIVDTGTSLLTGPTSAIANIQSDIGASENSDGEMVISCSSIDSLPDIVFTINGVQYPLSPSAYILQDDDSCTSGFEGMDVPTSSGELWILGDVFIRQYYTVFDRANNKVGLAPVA

- remaining at 8 h (porcine pepsin): 101 ± 12%
- PAMPA permeability: % permeability ([1]; 50 μM, 12–18 h, acceptor concentration relative to equilibrium): 66 ± 19%
- Permeability% (single replicates R1–R3) ([1]; 50 μM, 12 h (Fig. 6d)): 52.91% and 57.15% and 54.20%
- Permeability% Average ([1]; 50 μM, 12 h (Fig. 6d)): 54.8%
- Permeability% (single replicates R1–R3) ([1]; 50 μM, 13 h (Fig. 5d)): 79.02% and 44.84% and 74.28%
- Permeability% Average ([1]; 50 μM, 13 h (Fig. 5d)): 66.0%
- Papp at 50 μM ([1]; PAMPA, pH 7.4): 9.77 ×10⁻⁶ cm/s
- slope normalized to DMSO, rat alpha thrombin inhibition (rat α-thrombin; peptide 1.00E+02 uM): 5.4 and 5.2 and 4.3
- slope normalized to DMSO, rat alpha thrombin inhibition (rat α-thrombin; peptide 1.19E-05 uM): 102.6 and 102.2 and 91.2
- slope normalized to DMSO, rat alpha thrombin inhibition (rat α-thrombin; peptide 1.22E-02 uM): 54.9 and 61.5 and 61.2
- slope normalized to DMSO, rat alpha thrombin inhibition (rat α-thrombin; peptide 1.25E+01 uM): 7.2 and 11.2 and 5.0
- slope normalized to DMSO, rat alpha thrombin inhibition (rat α-thrombin; peptide 1.53E-03 uM): 90.8 and 92.4 and 84.4
- slope normalized to DMSO, rat alpha thrombin inhibition (rat α-thrombin; peptide 1.56E+00 uM): 8.6 and 7.9 and 7.3
- slope normalized to DMSO, rat alpha thrombin inhibition (rat α-thrombin; peptide 1.91E-04 uM): 101.3 and 100.0 and 99.0
- slope normalized to DMSO, rat alpha thrombin inhibition (rat α-thrombin; peptide 1.95E-01 uM): 18.2 and 17.7 and 18.1
- slope normalized to DMSO, rat alpha thrombin inhibition (rat α-thrombin; peptide 2.38E-05 uM): 104.9 and 102.6 and 101.9
- slope normalized to DMSO, rat alpha thrombin inhibition (rat α-thrombin; peptide 2.44E-02 uM): 50.2 and 48.9 and 44.8
- slope normalized to DMSO, rat alpha thrombin inhibition (rat α-thrombin; peptide 2.50E+01 uM): 4.6 and 8.1 and 4.9
- slope normalized to DMSO, rat alpha thrombin inhibition (rat α-thrombin; peptide 3.05E-03 uM): 90.9 and 88.2 and 90.2
- slope normalized to DMSO, rat alpha thrombin inhibition (rat α-thrombin; peptide 3.12E+00 uM): 7.5 and 10.1 and 7.1
- slope normalized to DMSO, rat alpha thrombin inhibition (rat α-thrombin; peptide 3.81E-04 uM): 96.2 and 101.3 and 91.7
- slope normalized to DMSO, rat alpha thrombin inhibition (rat α-thrombin; peptide 3.91E-01 uM): 12.4 and 9.5 and 6.1
- slope normalized to DMSO, rat alpha thrombin inhibition (rat α-thrombin; peptide 4.77E-05 uM): 105.1 and 89.9 and 85.4
- slope normalized to DMSO, rat alpha thrombin inhibition (rat α-thrombin; peptide 4.88E-02 uM): 32.8 and 33.4 and 28.7
- slope normalized to DMSO, rat alpha thrombin inhibition (rat α-thrombin; peptide 5.00E+01 uM): 3.1 and 5.6 and 0.5
- slope normalized to DMSO, rat alpha thrombin inhibition (rat α-thrombin; peptide 6.10E-03 uM): 72.5 and 78.4 and 84.7
- slope normalized to DMSO, rat alpha thrombin inhibition (rat α-thrombin; peptide 6.25E+00 uM): 7.7 and -0.5
- slope normalized to DMSO, rat alpha thrombin inhibition (rat α-thrombin; peptide 7.63E-04 uM): 95.8 and 97.3 and 89.3
- slope normalized to DMSO, rat alpha thrombin inhibition (rat α-thrombin; peptide 7.81E-01 uM): 10.1 and 10.3 and 8.9
- slope normalized to DMSO, rat alpha thrombin inhibition (rat α-thrombin; peptide 9.54E-05 uM): 96.1 and 92.0 and 94.2
- slope normalized to DMSO, rat alpha thrombin inhibition (rat α-thrombin; peptide 9.77E-02 uM): 27.3 and 26.5 and 22.9
- Rat alpha thrombin inhibition, slope normalized to DMSO (rat α-thrombin; peptide concentration 1.00E+02 uM): 5.4 and 5.2 and 4.3
- Rat alpha thrombin inhibition, slope normalized to DMSO (rat α-thrombin; peptide concentration 1.19E-05 uM): 102.6 and 102.2 and 91.2
- Rat alpha thrombin inhibition, slope normalized to DMSO (rat α-thrombin; peptide concentration 1.22E-02 uM): 54.9 and 61.5 and 61.2
- Rat alpha thrombin inhibition, slope normalized to DMSO (rat α-thrombin; peptide concentration 1.25E+01 uM): 7.2 and 11.2 and 5.0
- Rat alpha thrombin inhibition, slope normalized to DMSO (rat α-thrombin; peptide concentration 1.53E-03 uM): 90.8 and 92.4 and 84.4
- Rat alpha thrombin inhibition, slope normalized to DMSO (rat α-thrombin; peptide concentration 1.56E+00 uM): 8.6 and 7.9 and 7.3
- Rat alpha thrombin inhibition, slope normalized to DMSO (rat α-thrombin; peptide concentration 1.91E-04 uM): 101.3 and 100.0 and 99.0
- Rat alpha thrombin inhibition, slope normalized to DMSO (rat α-thrombin; peptide concentration 1.95E-01 uM): 18.2 and 17.7 and 18.1
- Rat alpha thrombin inhibition, slope normalized to DMSO (rat α-thrombin; peptide concentration 2.38E-05 uM): 104.9 and 102.6 and 101.9
- Rat alpha thrombin inhibition, slope normalized to DMSO (rat α-thrombin; peptide concentration 2.44E-02 uM): 50.2 and 48.9 and 44.8
- Rat alpha thrombin inhibition, slope normalized to DMSO (rat α-thrombin; peptide concentration 2.50E+01 uM): 4.6 and 8.1 and 4.9
- Rat alpha thrombin inhibition, slope normalized to DMSO (rat α-thrombin; peptide concentration 3.05E-03 uM): 90.9 and 88.2 and 90.2
- Rat alpha thrombin inhibition, slope normalized to DMSO (rat α-thrombin; peptide concentration 3.12E+00 uM): 7.5 and 10.1 and 7.1
- Rat alpha thrombin inhibition, slope normalized to DMSO (rat α-thrombin; peptide concentration 3.81E-04 uM): 96.2 and 101.3 and 91.7
- Rat alpha thrombin inhibition, slope normalized to DMSO (rat α-thrombin; peptide concentration 3.91E-01 uM): 12.4 and 9.5 and 6.1
- Rat alpha thrombin inhibition, slope normalized to DMSO (rat α-thrombin; peptide concentration 4.77E-05 uM): 105.1 and 89.9 and 85.4
- Rat alpha thrombin inhibition, slope normalized to DMSO (rat α-thrombin; peptide concentration 4.88E-02 uM): 32.8 and 33.4 and 28.7
- Rat alpha thrombin inhibition, slope normalized to DMSO (rat α-thrombin; peptide concentration 5.00E+01 uM): 3.1 and 5.6 and 0.5
- Rat alpha thrombin inhibition, slope normalized to DMSO (rat α-thrombin; peptide concentration 6.10E-03 uM): 72.5 and 78.4 and 84.7
- Rat alpha thrombin inhibition, slope normalized to DMSO (rat α-thrombin; peptide concentration 6.25E+00 uM): 7.7 and -0.5
- Rat alpha thrombin inhibition, slope normalized to DMSO (rat α-thrombin; peptide concentration 7.63E-04 uM): 95.8 and 97.3 and 89.3
- Rat alpha thrombin inhibition, slope normalized to DMSO (rat α-thrombin; peptide concentration 7.81E-01 uM): 10.1 and 10.3 and 8.9
- Rat alpha thrombin inhibition, slope normalized to DMSO (rat α-thrombin; peptide concentration 9.54E-05 uM): 96.1 and 92.0 and 94.2
- Rat alpha thrombin inhibition, slope normalized to DMSO (rat α-thrombin; peptide concentration 9.77E-02 uM): 27.3 and 26.5 and 22.9
SMILES: O=C1C[C@H]2CCCN2C(=O)[C@H](Cc2ccccc2)NC(=O)[C@@H](NC(=O)c2ccc(Cl)s2)CCC=CCCCCN1 [peptide 43]

Reference: publication PMC11062899, “De novo development of small cyclic peptides that are orally bioavailable” (Nature Chemical Biology, 2023)
